Patent US20130079370A1, “Method for the Inhibition of Deubiquitinating Activity” (priority 2011, published 2013)

Legend:
[1] = biological target: T1, human 19S RP (Homo sapiens, UniProt P54578+Q9Y5K5); assay: De-ubiquitinase activity assay, Ub-AMC cleavage by 19S RP; format: biochemical; details: read-out: IC50, DUB activity by detection of Ub-AMC cleavage
T1 construct: purchased Boston Biochem E-366

[2] = tested on: Lewis Lung Carcinoma (LLC) tumors; assay: Syngenic lung carcinoma (LLC) model; format: in vivo, C57BL/6J mice; details: 5 mg/kg i.p.
[3] = tested on: orthotopic breast carcinomas (4T1); assay: Orthotopic breast carcinoma (4T1) model; format: in vivo, BALB/c mice; details: 2.5 mg/kg i.p., 1 day on/3 days off
[4] = tested on: MCF7 cells; assay: Microarray based gene expression analysis, chaperone genes; format: cell-based; parameters: key to Expression value HSPA4L / Expression value DNAJB1 / Expression value HSPD1 / Expression value DNAJB4 / Expression value HSPA1B / Expression value HSPH1 / Expression value HSPA4 / Expression value DNAJB9 / Expression value DNAJA1 / Expression value HSPA1A / Expression value HSPA6 / Expression value DNAJA4: MAS5-normalized array expression, arbitrary units
Description: The microarray based gene expression analysis and the Connectivity Map (CMAP) analysis was performed as previously described (40). Briefly, MCF7 cells were exposed to b-AP15 (1 μM, 6 h) or vehicle (0.1% DMSO, 6 h). RNA was isolated (RNeasy miniprep kit, Qiagen) followed by quality control, labelling and hybridization to Genome U133 Plus 2.0 arrays (Affymetrix Inc). Raw data was normalized using MasS (Affymetrix Inc.) and rank ordered. For selection of the 30 most induced (up tags) and the 30 most suppressed (down tags) transcripts the following criteria were used: Up tags, present call and expression over 300 arbitrary in the b-AP15 experiment; Down tags, present call after both b-AP15 and vehicle treatment, and expression over 300 arbitrary units in the vehicle experiment. For CMAP compatibility only tags (i.e. probes) present on HG U133A were used. Raw and normalized expression data have been deposited at Gene Expression Omnibus (http://www.ncbi.nlm. nih.gov/geo/) with accession number GSE24150.
Expression of chaperone genes observed in bAP15-treated cells (Table 1) is indicative of induction of a proteotoxic response.

[5] = tested on: HCT116 cells; format: cell-based; details: human
Source text: These findings indicate that high molecular weight ubiquitin substrate complexes accumulating as a result of DUB inhibition can generate strong cytotoxicity that is insensitive to Bcl-2 over-expression. [table]

[6] = tested on: HTC-116, hTERT-RPE1 and PBMC; assay: Cytotoxic activity, FMCA method; format: cell-based; details: 72 h
Description: For the FMCA assay cells were seeded in the drug-prepared 384-well plates using the pipetting robot Precision 2000 (Bio-Tek Instruments Inc., Winooski, Vt.). The plates were incubated for 72 h and then transferred to an integrated HTS SAIGAN Core System consisting of an ORCA robot (Beckman Coulter) with CO2 incubator (Cytomat 2C, Kendro, Sollentuna, Sweden), dispenser module (Multidrop 384, Titertek, Huntsville, Ala.), washer module (ELx 405, Bio-Tek Instruments Inc), delidding station, plate hotels, barcode reader (Beckman Coulter), liquid handler (Biomek 2000, Beckman Coulter) and a multipurpose reader (FLUOstar Optima, BMG Labtech GmbH, Offenburg, Germany) for automated FMCA. Survival index (SI) is defined as the fluorescence of test wells in percentage of controls with blank values subtracted.
HCT-116 cells were treated with increasing concentrations of b-AP15 for 24 h and the levels of apoptosis were determined by measuring the levels of caspase cleaved cytokeratin-18 (CK18) by ELISA assay (FIG. 6a). HCT-116 cells were treated with increasing concentrations of b-AP15 for 48 h). Cell viability was determined by acid-phosphatase activity assay. […] IC50 was determined from log concentration/effect curves in Graph Pad Prism (GraphPad Software Inc. CA, USA) using non-linear regression analysis (four parameter model with variable Hill slope) (FIGS. 6e, 6f). […]

C=CC(=O)N1C/C(=C\c2ccc([N+](=O)[O-])cc2)C(=O)/C(=C/c2ccc([N+](=O)[O-])cc2)C1 [b-AP15, (3E,5E)-3,5-bis[(4-nitrophenyl)methylidene]-1-(prop-2-enoyl)piperidin-4-one]
IC50 [1]: 2.1 ± 0.411 µM
difference in weight at the start and the endpoint between control and treated animals [2]: +2.1%
difference in weight at the start and the endpoint between control and treated animals [3]: +5.8%
Expression value HSPA6 ([4]; probe set 117_at, MCF7 cells, 1 μM, 6 h): 24149
Expression value DNAJB1 ([4]; probe set 200666_s_at, MCF7 cells, 1 μM, 6 h): 33900
Fold change DNAJB1 ([4]; probe set 200666_s_at, b-AP15 vs vehicle): 6
Expression value HSPA1A ([4]; probe set 200800_s_at, MCF7 cells, 1 μM, 6 h): 57478
Fold change HSPA1A ([4]; probe set 200800_s_at, b-AP15 vs vehicle): 4
Expression value DNAJA1 ([4]; probe set 200880_at, MCF7 cells, 1 μM, 6 h): 19970
Fold change DNAJA1 ([4]; probe set 200880_at, b-AP15 vs vehicle): 4
Expression value HSPA1B ([4]; probe set 202581_at, MCF7 cells, 1 μM, 6 h): 31068
Fold change HSPA1B ([4]; probe set 202581_at, b-AP15 vs vehicle): 5
Expression value DNAJB9 ([4]; probe set 202843_at, MCF7 cells, 1 μM, 6 h): 1879
Fold change DNAJB9 ([4]; probe set 202843_at, b-AP15 vs vehicle): 4
Expression value DNAJB4 ([4]; probe set 203810_at, MCF7 cells, 1 μM, 6 h): 1955
Expression value DNAJB4 ([4]; probe set 203811_s_at, MCF7 cells, 1 μM, 6 h): 960
Fold change DNAJB4 ([4]; probe set 203811_s_at, b-AP15 vs vehicle): 5
Expression value HSPA4L ([4]; probe set 205543_at, MCF7 cells, 1 μM, 6 h): 5452
Expression value HSPH1 ([4]; probe set 206976_s_at, MCF7 cells, 1 μM, 6 h): 40974
Fold change HSPH1 ([4]; probe set 206976_s_at, b-AP15 vs vehicle): 5
Expression value HSPA4 ([4]; probe set 211016_x_at, MCF7 cells, 1 μM, 6 h): 1803
Fold change HSPA4 ([4]; probe set 211016_x_at, b-AP15 vs vehicle): 4
Expression value DNAJA4 ([4]; probe set 225061_at, MCF7 cells, 1 μM, 6 h): 21103
Fold change DNAJA4 ([4]; probe set 225061_at, b-AP15 vs vehicle): 30
Expression value HSPD1 ([4]; probe set 241716_at, MCF7 cells, 1 μM, 6 h): 487
Fold change HSPD1 ([4]; probe set 241716_at, b-AP15 vs vehicle): 6
Fold induction DNAJB1 (Hsp40B1) [5]: 22 fold
Fold induction HSPA1B [5]: 21 fold
cytotoxic activity, tumor versus normal cell types [6]: more toxic to the colon carcinoma cell line HTC-116 than to immortalized retinal pigment epithelial cells (hTERT-RPE1) and peripheral blood mononuclear cells (PBMC)
